This is an account of results in patent US7371364B2, “Cyclic peptide and imaging compound compositions and uses for targeted imaging and therapy” (Board of Regents, The University of Texas System, priority 2003, dated 2008).

Test [1] has as its system intratibia PC-3 prostate tumors. Nature of the test: In vivo NIR fluorescent imaging with HWG imaging agent. Also on record: species or system mice. On the procedure: Four to six week-old athymic nude mice (18-22 g, Harlan Sprague Dawley, Inc., Indianapolis, Ind.) were housed 5 per cage with sterilized pet chow (Harlan Sprague Dawley) and sterilized water. Animals were maintained in a pathogen-free mouse colony in the Department of Veterinary Medicine at the University of Texas M.D. Anderson Cancer Center. All experiments were performed in accordance with the guidelines of the Institutional Animal Care and Use Committee. Tumor cells were harvested near confluence by incubation with 0.05% trypsin-EDTA. Cells were pelleted by centrifugation at 450×g for 5 minutes and resuspended in sterile PBS. Cells (2-3×10^6/animal) were implanted subcutaneously into the chest wall or the hind legs of the mice. Human PC-3 prostate tumors were obtained by intratibia injection of PC-3 cells into male nude mice. Human U87 glioma tumors were obtained by intracranial injection. In vivo fluorescence imaging was accomplished by illuminating the animal with light from a laser diode (785 nm, 80 mW for IGC; 660 nm, 35 mW for Cy 5.5 dyes) expanded to an approximate 8 cm diameter circular area. The re-emitted fluorescent light was collected by an image intensifier (model F[…], ITT Night Vision, Roanoke, Va.) lens-coupled to a CCD camera (model CH350, Photometrics, Tucson, Ariz.). The imaging was designed so that the field of view could be varied from 3×3 cm to over 12×12 cm by varying the image distance of the 50 mm lens used to focus the image onto the photocathode of the intensifier. The lens was fitted with a holographic notch-plus filter (785 nm center wavelength for ICG and 660 nm center wavelength for Cy5.5 dyes; Kaiser Optical Systems, Inc., Ann Arbor, Mich.) and a bandpass filter (830 nm center wavelength for ICG, 710 nm center wavelength for Cy5.5 dyes) to reject back-scattered and reflected excitation photons. Image acquisition was accomplished using V++ software (Digital Optics, Auckland, New Zealand) and obtained images were stored in uncompressed tagged image file format (tiff). […]

A further test has as its system KS1767 tumors. The description is as above. The arrangement: species or system mice. The following applies: subcutaneous KS1767 tumors, 15 nmol per mouse. On the procedure: (§1) Four to six week-old athymic nude mice (18-22 g, Harlan Sprague Dawley, Inc., Indianapolis, Ind.) were housed 5 per cage with sterilized pet chow (Harlan Sprague Dawley) and sterilized water. Animals were maintained in a pathogen-free mouse colony in the Department of Veterinary Medicine at the University of Texas M.D. Anderson Cancer Center. All experiments were performed in accordance with the guidelines of the Institutional Animal Care and Use Committee. Tumor cells were harvested near confluence by incubation with 0.05% trypsin-EDTA. Cells were pelleted by centrifugation at 450×g for 5 minutes and resuspended in sterile PBS. Cells (2-3×10^6/animal) were implanted subcutaneously into the chest wall or the hind legs of the mice. Human PC-3 prostate tumors were obtained by intratibia injection of PC-3 cells into male nude mice. Human U87 glioma tumors were obtained by intracranial injection.
(§2) In vivo fluorescence imaging was accomplished by illuminating the animal with light from a laser diode (785 nm, 80 mW for IGC; 660 nm, 35 mW for Cy 5.5 dyes) expanded to an approximate 8 cm diameter circular area. The re-emitted fluorescent light was collected by an image intensifier (model FS9910C, ITT Night Vision, Roanoke, Va.) lens-coupled to a CCD camera (model CH350, Photometrics, Tucson, Ariz.). The imaging was designed so that the field of view could be varied from 3×3 cm to over 12×12 cm by varying the image distance of the 50 mm lens used to focus the image onto the photocathode of the intensifier. The lens was fitted with a holographic notch-plus filter (785 nm center wavelength for ICG and 660 nm center wavelength for Cy5.5 dyes; Kaiser Optical Systems, Inc., Ann Arbor, Mich.) and a bandpass filter (830 nm center wavelength for ICG, 710 nm center wavelength for Cy5.5 dyes) to reject back-scattered and reflected excitation photons. Image acquisition was accomplished using V++ software (Digital Optics, Auckland, New Zealand) and obtained images were stored in uncompressed tagged image file format (tiff). Data processing and analysis was accomplished using Matlab software (The Math Works, Inc., Natick, Mass.).

The test system of another test is human glioma U87 tumor. The description is as above. Also on record: species or system mice. On the procedure: as §1, §2
The test system of another test is MDA-MB-468 tumors. The description is as above. Also on record: species or system mice. The following applies: subcutaneous MDA-MB-468 tumors, 15 nmol per mouse. On the procedure: as §1, §2
For a further test, the system named is HT1080 tumor. Described as above. The arrangement: species or system mice. The following applies: subcutaneous HT1080 tumor, 27 hours after i.v. injection, 15 nmol/mouse. Here is the method:
as §1, §2

In the next test the test system is SKBr-3 tumors. Described as above. The arrangement: species or system mice. The following applies: 4 days after i.v. injection, 15 nmol per mouse. Here is the method: as §1, §2
A further test has as its system human tumor cells. The experiment in a line: In vitro tumor cell binding study (fluorescence microscopy). In kind it is cell-based. Here is the method: All human tumor cell-lines were obtained from American Type Culture Collection (Rockville, Md.) and were maintained at 37° C. in a humidified atmosphere containing 5% CO2 in Dulbecco's Modified Eagle's Medium/Nutrient Mixture F-12 Ham (DMEM/F12) and 10% FBS (Gibco, Grand Island, N.Y.).
Cells were seeded on cover slips in 24-well plates (Becton Dickinson Labware, Franklin Lakes, N.J.) and incubated in DMEM/F12 culture medium (0.5 ml/well) overnight. Cy5.5 and Cy5.5-HWG polypeptide imaging agents were added into each well at the indicated concentrations. For the blocking study, doxycycline was added to the culture medium followed by the addition of Cy5.5-HWG polypeptide imaging agent 1 hour later. After an incubation period of 5-60 minutes at 37° C., cells were washed twice with PBS and incubated in a solution of Sytox Green in 95% ethyl alcohol (1 μM, Molecular Probe, Eugene, Oreg.) for 15 minutes to fix and stain cell nuclei. For staining of MMP expression, cells that were pretreated with Cy5.5-HWG polypeptide and stained with Sytox Green were incubated with anti-MMP antibody (Sigma) (1 mg/ml; 1:200 dilution) for 1 hour at room temperature. The cells were then washed and incubated with Texas Red conjugated go at anti-rabbit IgG (Molecular Probe, 4 μg/ml) at room temperature for 1 hour. Cells were washed again with PBS and the cover slips were mounted for microscopic examination using a DMR microscope (Leica Microsystems, Inc., Brannockburn, Ill.). The microscope was equipped with a 75W Xenon lamp, 775 nm/845 nm, 560 nm/645 nm, and 480 nm/535 nm (Excitation/emission) filters (Chroma Technology Corp., Brattleboro, Vt.), a Hamamatsu B/W Chilled CCD camera (Hamamatsu Photonics K.K., Hamamatsu City, Japan), and Image-Pro Plus 4.5.1 software (Media Cybernetics, Silver Spring, Md.). In the multiple staining images, Cy5.5, MMPs, and Sytox Green were pseudocolored red, green, and blue, respectively.

Test [2] addresses T1, αvβ3 integrin (on KS1767 cells) (UniProt P06756 31-1048; P05106 27-788).
T1 construct: whole, on cells; also called integrin αvβ3
Nature of the test: control in the KS1767 cell adhesion assay on vitronectin-coated wells (FIG. 31). On the procedure: A Cell Adhesion Assay was additionally performed. KS1767 cells were seeded in DMEM/F12 culture medium supplemented with 10% fetal bovine serum for 24 hr. Cells (1×10^5) with different concentrations of c(KRGDf; SEQ ID NO. 3) or Cy5.5-c(KRGDf; SEQ ID NO. 3) were added to vitronectin-coated microliter wells under serum-free conditions and incubated at 37° C. for 1 hr. After washing steps, the bound cells were stained with 5% crystal violet, followed by addition of 0.1M HCl to each well. The concentrations of crystal violet were determined by UV/V is absorption at 627 nm. $IC50$ values were estimated from the dose-activity curves.

Test [3] concerns the target T2, pre-activated MMP-2 (gelatinase A), Chemicon assay (UniProt P08253 110-660, limits assumed).
T2 sequence (looked up): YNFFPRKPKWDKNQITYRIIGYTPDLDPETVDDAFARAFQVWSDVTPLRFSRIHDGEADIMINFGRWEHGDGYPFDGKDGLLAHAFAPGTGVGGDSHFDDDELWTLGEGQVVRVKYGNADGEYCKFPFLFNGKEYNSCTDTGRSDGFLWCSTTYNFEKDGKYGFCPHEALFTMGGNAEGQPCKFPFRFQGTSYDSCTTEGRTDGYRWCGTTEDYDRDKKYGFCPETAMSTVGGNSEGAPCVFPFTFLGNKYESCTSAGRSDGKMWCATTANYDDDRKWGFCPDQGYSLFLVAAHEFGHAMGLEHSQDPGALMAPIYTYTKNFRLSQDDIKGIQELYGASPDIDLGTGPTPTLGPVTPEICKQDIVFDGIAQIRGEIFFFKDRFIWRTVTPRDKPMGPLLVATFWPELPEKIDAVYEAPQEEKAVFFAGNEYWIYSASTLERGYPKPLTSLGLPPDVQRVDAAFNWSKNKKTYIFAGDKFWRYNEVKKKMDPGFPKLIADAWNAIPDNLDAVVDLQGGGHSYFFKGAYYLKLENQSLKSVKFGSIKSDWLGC
The experiment in a line: cell-based or functional assay.

Positions of bridges follow the written chain, without caps; N, C: chain ends. No end group written: not given here. Cy5.5 = cyanine near-infrared dye Cy5.5, conjugated via its NHS ester to the amino group

T1 sequence (P06756 31-1048, chain 1 of 2): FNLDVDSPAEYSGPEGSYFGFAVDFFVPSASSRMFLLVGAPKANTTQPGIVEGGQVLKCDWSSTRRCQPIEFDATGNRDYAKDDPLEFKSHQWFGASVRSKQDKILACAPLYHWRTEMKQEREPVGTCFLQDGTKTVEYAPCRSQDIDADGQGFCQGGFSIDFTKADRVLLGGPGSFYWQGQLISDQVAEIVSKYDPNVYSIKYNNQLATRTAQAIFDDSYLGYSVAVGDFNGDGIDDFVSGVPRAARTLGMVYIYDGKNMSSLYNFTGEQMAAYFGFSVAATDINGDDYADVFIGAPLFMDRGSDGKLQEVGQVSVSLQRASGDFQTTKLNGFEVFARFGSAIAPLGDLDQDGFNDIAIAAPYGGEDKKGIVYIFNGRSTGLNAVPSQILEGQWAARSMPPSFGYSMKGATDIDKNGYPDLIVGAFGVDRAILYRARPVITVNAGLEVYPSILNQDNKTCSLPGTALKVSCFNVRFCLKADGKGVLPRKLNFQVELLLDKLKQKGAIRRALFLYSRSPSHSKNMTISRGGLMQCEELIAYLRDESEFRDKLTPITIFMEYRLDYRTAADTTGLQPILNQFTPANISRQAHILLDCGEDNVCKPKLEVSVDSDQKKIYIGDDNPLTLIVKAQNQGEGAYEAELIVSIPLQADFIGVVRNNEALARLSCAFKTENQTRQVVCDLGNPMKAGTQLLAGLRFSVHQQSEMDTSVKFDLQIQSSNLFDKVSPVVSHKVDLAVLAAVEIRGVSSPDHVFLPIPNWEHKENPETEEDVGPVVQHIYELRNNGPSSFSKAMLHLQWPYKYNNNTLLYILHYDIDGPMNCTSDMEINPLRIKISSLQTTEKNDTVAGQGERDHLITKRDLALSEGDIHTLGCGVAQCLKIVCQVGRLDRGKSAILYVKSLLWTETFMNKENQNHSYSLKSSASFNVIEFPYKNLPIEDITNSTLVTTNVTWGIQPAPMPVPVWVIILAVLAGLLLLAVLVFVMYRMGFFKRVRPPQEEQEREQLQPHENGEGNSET
T1 sequence (P05106 27-788, chain 2 of 2): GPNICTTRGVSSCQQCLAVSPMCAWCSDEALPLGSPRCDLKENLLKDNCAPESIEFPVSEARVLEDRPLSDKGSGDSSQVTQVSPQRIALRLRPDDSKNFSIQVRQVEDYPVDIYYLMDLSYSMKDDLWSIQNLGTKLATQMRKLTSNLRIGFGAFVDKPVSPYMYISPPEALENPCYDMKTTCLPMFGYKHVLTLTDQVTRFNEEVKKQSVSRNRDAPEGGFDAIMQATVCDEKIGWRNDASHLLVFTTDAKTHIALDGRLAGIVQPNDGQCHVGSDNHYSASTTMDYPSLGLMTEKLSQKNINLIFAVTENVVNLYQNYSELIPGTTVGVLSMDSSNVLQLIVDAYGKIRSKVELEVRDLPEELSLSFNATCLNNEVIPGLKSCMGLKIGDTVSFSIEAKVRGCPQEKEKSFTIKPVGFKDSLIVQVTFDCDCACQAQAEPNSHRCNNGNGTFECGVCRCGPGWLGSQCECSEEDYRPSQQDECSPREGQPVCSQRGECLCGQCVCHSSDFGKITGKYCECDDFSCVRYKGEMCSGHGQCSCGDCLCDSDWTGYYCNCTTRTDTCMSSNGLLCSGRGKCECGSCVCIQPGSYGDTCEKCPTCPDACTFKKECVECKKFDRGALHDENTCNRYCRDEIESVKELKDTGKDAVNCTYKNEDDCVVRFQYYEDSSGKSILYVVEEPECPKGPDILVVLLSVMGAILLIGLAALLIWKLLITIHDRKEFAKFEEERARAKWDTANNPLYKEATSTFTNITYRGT

As to “Cy5.5-c(KAHWGFTLD)NH2 ({Cy5.5}-KAHWGFTLD-NH2; lactam 1-9)”, the “Fluorescent signal in contra lateral tibia region preinjected with saline” value in test [1] (control leg, i.v. injection of imaging agent) was “no fluorescent signal was detected”. Further, the “Visualization of small tumor in NIR image” value in [1] (intratibia PC-3, no lesion by X-ray, 3 days after inoculation, 24 and 48 hours after injection) is “clearly visualized”; in the test with human glioma U87 tumor (subcutaneous U87, lesion less than 2 mm, 3 days after inoculation, 24 and 48 hours after injection), “clearly visualized”. For the same molecule, in [1] (intratibia PC-3 inoculated 3 days earlier, images 24 hours after injection), the “Presence of tumors shown in NIR images (specificity versus scrambled peptide)” value is recorded as “clearly showed the presence of tumors”. Besides, the “Visualization of tumor in NIR image” value is reported as “clearly visualized” in the test with KS1767 tumors, “clearly visualized” in the test with MDA-MB-468 tumors and “clearly visualized with minimal background signal” in the test on HT1080 tumor. The “Binding and retention in the tumor (NIR image)” value with human glioma U87 tumor (intracranial U87, tumor 3-4 mm, 12 days after inoculation, 38 hours after injection, intact animal and excised brain) is “clearly depicted”. Further, the “Fluorescent signal in tumor” value in the test with SKBr-3 tumors is on record as “strong fluorescent signal”. Besides, the “Binding to tumor cells” value with human tumor cells (SKBr-3, HT1080, MDA-MB-435, MDA-MB-468, U87 (PC-3 and U87 for the Tyr analogue), 37° C.) was “bound”. In the test on human tumor cells (all cell lines tested), the “Co-localization with MMPs (MMP-2, MMP-8, MMP-9 staining)” value is given as “co-localized with MMPs”.
As to Ac-ACNGRCG (bridge 2-6; also: kind of ring closure not given here, also called control cyclic pentapeptide) [Ac-A-c(CNGRC)-G], the binding result in test [2] is “no binding”.

B1: c(KAHWGFTLD)NH2 (SEQ ID NO. 10) (side chain-to-side chain linkage) (peptide)
peptide: KAHWGFTLD
HELM: PEPTIDE1{K.A.H.W.G.F.T.L.D.[am]}$PEPTIDE1,PEPTIDE1,1:R3-9:R3$$$V2.0; N-terminus assumed
SMILES: CC(C)C[C@@H]1NC(=O)[C@H]([C@@H](C)O)NC(=O)[C@H](Cc2ccccc2)NC(=O)CNC(=O)[C@H](Cc2c[nH]c3ccccc23)NC(=O)[C@H](Cc2c[nH]cn2)NC(=O)[C@H](C)NC(=O)[C@@H](N)CCCCNC(=O)C[C@@H](C(N)=O)NC1=O
As to B1, the “IC50 of MMP-2 enzyme inhibition (biotinylated gelatinase substrate cleavage assay)” value in test [3] came to 5.5 µM.
